Measurements taken from US20140275090A1, “BILE ACID RECYCLING INHIBITORS FOR TREATMENT OF PRIMARY SCLEROSING CHOLANGITIS AND INFLAMMATORY BOWEL DISEASE” (Lumena Pharmaceuticals, Inc., priority 2013, published 2014).

How the values were obtained:
[1] = tested on: fecal bile acids; assay: Phase 1 ascending multiple oral doses of LUM001 in healthy adults: fecal bile acid analysis; format: in vivo, human; conditions: 28 days
Procedure: This Phase 1 study was a randomized, double-blind, placebo-controlled study of ascending multiple oral doses of LUM001 in healthy, adult subjects. This study was conducted at a single center. There were 13 LUM001 dosing panels: 10, 20, 60, 100, and 20 mg every morning (qAM) (2) (i.e., the regimen was tested a second time in the study), 5 mg every evening (qPM), 0.5, 1, 2.5, 5, 2.5 (2), 5 (2), and 0.5 to 5 mg qAM dose titration. Most of the dosing panels included subjects treated with matching placebo. No subject participated in more than 1 dosing panel. […]
On Day 1 of the Treatment Period, subjects who qualified for enrollment were randomized in the order in which they were admitted to the research facility. […] The safety and tolerability of LUM001 were evaluated by physical examination, ascertainment of adverse signs and symptoms, and clinical laboratory studies. […]
Fecal samples were collected for all panels except the dose-titration panel, 2.5 (2) and 5 mg (2), on Days 9 through 14 and 23 through 28 (data shown in FIG. 6; *p<0.05; **p<0.01 compared to placebo). Twenty-four hour FBA excretions were quantified by Pharmacia for Days 9 through 14 and 23 through 28. […] The weight of each 24-hour fecal collection was recorded on the CRFs. […]
An aliquot for each 24-hour fecal sample collected on Days 23 through 28 was combined, homogenized, and analyzed for bile acid species concentrations by ANAPHARM. […]

[2] = tested on: Hepatic HMG-CoA Reductase; assay: Hepatic HMG-CoA reductase activity assay, hamster liver microsomes; format: in vivo, golden Syrian hamster; conditions: 28 days
Source text: Male golden Syrian hamsters (126-147 gm) were obtained from Charles Rivers Laboratories and were single housed in a constant temperature environment with alternating 12-hour light and dark cycles. Hamsters were fed Teklad 7001 rodent meal chow at libitum for two weeks before the experimental studies began and switched to Teklad 7001 rodent meal chow supplemented with 0.24% cholesterol on day one of the 28-day experiment. Water was continuously available to the animals. Hamsters were assigned to groups in a manner that normalized each group by pretreatment body weights. SD-5613 was dissolved in an aqueous solution of 0.2% (w/v) Tween 80 and administered Q.D. by intragastric gavage between 9 a.m. and 10 a.m. each morning using a syringe fitted with a flexible feeding tube. Blood samples were collected after 14- and 28-day treatment periods by orbital sinus and cardiac puncture, respectively. Hamsters were anesthetized but not fasted prior to blood collections. Fecal samples were collected during a 48-hour period at the end of days 14 and 28 (i.e. days 13-14 and 27-28). Hamsters were sacrificed using carbon dioxide asphyxiation to obtain the following tissue samples: liver, kidneys, colon and cecum.
Homogenates of three gram liver tissue samples were prepared in 25 ml homogenization buffer [0.1 M potassium phosphate buffer, pH 7.2, containing 0.1 M sucrose, 50 mM KCl, 50 mM NaF, 5 mM ethylene glycol-bis(β-aminoethyl ether)-N,N,N′,N′-tetraacetic acid (EGTA), 1 mM EDTA, 3 mM dithiothreitol (DTIT), and 1 mM phenylmethylsulfonyl fluoride (PMSF)]. A microsomal fraction was prepared by centrifugation at 10,000×g for ten minutes. The supernatant was subjected to centrifugation at 105,000×g for two hours. The microsomal fraction was resuspended in a 0.1 M Na tetrapyrophosphate buffer (pH 10), with 50 mM NaF, and 1 mM EDTA, and subjected to centrifugation for one hour at 105,000×g. The microsomal fraction was resuspended in the homogenization buffer, and assayed for protein content by Coomassie Protein Plus Assay reagent.
Microsomes (200 μg) were preincubated for 15 minutes at 37° C. in a total volume of 225 μl buffer containing 0.1 M potassium phosphate (pH 7.4), 10 mM imidazole, 5 mM DTT, 10 mM EDTA, 3 mM NADP, 12 mM glucose-6-phosphate and 1 unit glucose-6-phosphate dehydrogenase (catalog number G4134, Sigma, St. Louis). The HMG-CoA reductase assay was initiated by the addition of 9 nmoles (0.5 μCi). DL-[-3^14C]-HMG-CoA (final assay volume was DL-3-[^14C]-250 μl). The mixture was incubated for 60 minutes at 37° C. after which the assay was stopped with 25 μl of 6 N HCl. [^3H]Mevalonic acid (0.1 μCi), used as an internal standard to correct for incomplete recovery, was added to the reaction mixture along with 3 mg of unlabeled mevalonic acid lactone. The mixture was then incubated for an additional 30 minutes at 37° C. The [^14C]mevalonate that was formed and converted into mevalonic acid lactone during both incubations was isolated by thin layer chromatography. Each lane was scraped into 3 ml of InstaGel XF (Packard, Meriden, Conn.) and read on a Beckman Scintillator Counter. Reagents unless noted otherwise were obtained from Sigma, St. Louis, Mo. Isotopes were obtained from NEN Life Science Products, Boston, Mass.

CCCCC1(CCCC)CS(=O)(=O)c2ccc(N(C)C)cc2[C@@H](c2ccc(OCc3ccc(C[N+]45CCN(CC4)CC5)cc3)cc2)[C@H]1O [LUM001]
effect on fecal bile acids [1]: significant increase
Hepatic HMG-CoA Reductase ([2]; 5 mg/kg/day): 4.6 ± 0.4 pmol/mg-protein/min
Hepatic HMG-CoA Reductase, % change from vehicle group ([2]; 5 mg/kg/day): (+31) %
Hepatic HMG-CoA Reductase ([2]; 15 mg/kg/day): 16 ± 4 pmol/mg-protein/min
Hepatic HMG-CoA Reductase, % change from vehicle group ([2]; 15 mg/kg/day): (+346) %
Hepatic HMG-CoA Reductase ([2]; 50 mg/kg/day): 17 ± 4 pmol/mg-protein/min
Hepatic HMG-CoA Reductase, % change from vehicle group ([2]; 50 mg/kg/day): (+389) %
